Experimental data: publication PMC6826779, “Bis-allylic Deuterated DHA Alleviates Oxidative Stress in Retinal Epithelial Cells” (Antioxidants, 2019)
Where two headings read alike, the source gives them in different places.

Key:
ARPE-19 cells = test: cells; type: cell-based; details: for concentration range providing improvement in cell viability / concentration at which high toxicity was observed (microscopy, loss of cell adherence): 24 h; for concentration range providing improvement in cell viability: compared to untreated cells (CTL); for concentration at which high toxicity was observed (microscopy, loss of cell adherence): ARPE-19, serum starvation medium (1% FBSM); for cell mortality: ARPE-19, serum starvation, 50 µM; for IC50: Homo sapiens, MTT, read-out: IC50 (concentration leading to 50% of cell viability)
Procedure: ARPE-19 cells were obtained from ATCC, and maintained in Dulbecco’s Modified Eagle’s Medium (DMEM)/Ham F12 (GIBCO) containing 10% (v/v) fetal bovine serum (FBS) and 1% (v/v) penicillin/streptomycin under a humidified (95%)/CO2 (5%) atmosphere at 37 °C. For splitting and experiments, cells were dissociated with 0.25% trypsin-EDTA, re-suspended in the culture medium and then plated at 1–3 × 10^5 cells/mL. Cells were cultured and used up to a maximum of 10 passages.
Cell viability was determined by the MTT colorimetric assay. Cells were incubated for 2 h with MTT reagent (0.5 mg/mL). The absorbance at 570 nm and 655 nm of individual wells was measured using a microplate reader (BioRad 550). The percentage of viable cells was calculated as [(OD570 sample – OD655 sample)/(OD570 control – OD655 control)] × 100%.
ARPE-19 cells were plated into 96-well plates (3 × 10^4 cells/well) and cultured for 24 h to reach confluence before DHA treatment. The cells were treated in medium with 1% FBS (1% FBSM), or with H2O2 prepared in medium with FBS (1%, v/v) to a final concentration of 600 μM. Cells were then treated with DHA, D2-DHA and D4-DHA, at different concentrations (0–80 μm) for 24 h. Control cells were incubated with DMSO (0.2%). After 4 h, cell viability was determined in triplicate using the MTT colorimetric assay. Results were expressed in percentage of viable cells normalized with control conditions in the absence of PUFA and H2O2 stress.
Sigmoidal doses-responses linked to the toxicity were obtained using GraphPad prism software, allowing to calculate IC50 values described as the concentration leading to 50% of cell viability.

15-sLOX = biological target: T1, 15-sLOX (Glycine max, UniProt P08170); test: Kinetics parameters of 15s-LOX (UV 270 nm, Michaelis-Menten); type: biochemical, Glycine max (soybean); details: monitored at 270 nm
T1 sequence (P08170 1-839): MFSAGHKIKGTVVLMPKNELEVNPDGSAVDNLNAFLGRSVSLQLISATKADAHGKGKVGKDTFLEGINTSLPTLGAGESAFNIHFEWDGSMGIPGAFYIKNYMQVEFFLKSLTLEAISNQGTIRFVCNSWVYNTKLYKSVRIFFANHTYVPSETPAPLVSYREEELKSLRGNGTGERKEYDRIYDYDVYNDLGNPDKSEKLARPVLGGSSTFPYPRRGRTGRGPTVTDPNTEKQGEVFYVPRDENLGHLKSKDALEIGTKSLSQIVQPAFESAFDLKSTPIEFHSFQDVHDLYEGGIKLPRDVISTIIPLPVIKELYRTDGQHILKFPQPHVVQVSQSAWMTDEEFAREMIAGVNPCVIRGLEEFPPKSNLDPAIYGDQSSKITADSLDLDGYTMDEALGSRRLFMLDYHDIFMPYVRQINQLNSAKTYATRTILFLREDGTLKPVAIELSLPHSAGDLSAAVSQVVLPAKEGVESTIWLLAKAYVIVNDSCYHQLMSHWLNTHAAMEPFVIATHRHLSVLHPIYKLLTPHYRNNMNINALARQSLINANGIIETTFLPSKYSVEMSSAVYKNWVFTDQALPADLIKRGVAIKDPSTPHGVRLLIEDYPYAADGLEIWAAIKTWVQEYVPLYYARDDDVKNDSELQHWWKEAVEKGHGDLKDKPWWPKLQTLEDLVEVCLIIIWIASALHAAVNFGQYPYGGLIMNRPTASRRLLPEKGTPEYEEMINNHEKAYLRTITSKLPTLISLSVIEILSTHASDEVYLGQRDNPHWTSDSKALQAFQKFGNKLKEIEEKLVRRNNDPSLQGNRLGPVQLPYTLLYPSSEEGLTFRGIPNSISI
Procedure: The activity of 15-sLOX was monitored on a Beckman Coulter DU730 Life Sciences UV-visible spectrometer at a wavelength of 270 nm monitoring the conjugated triene structure in the dihydroxylation products. For the measurements a reaction mixture of DHA or deuterated DHA (0.02 mM; 0.04 mM; 0.1 mM and 0.2 mM) was prepared in 750 µL sodium borate buffer (50 mM, pH 9) by ultrasonification for 10 s. The reaction was subsequently initiated by the addition of 10 µL 15-sLOX (4 mg/mL) to make a total volume of 760 µL in a Hellma CEL2056 quartz cuvette with 1 cm path length (20 °C). The initial reaction rates (V(0)), derived from the recorded UV-absorbance using the law of Lambert-Beer (molar extinction coefficient = 40,000), were plotted against the respective DHA concentrations and fitted to Michaelis-Menten kinetics in GraphPad Prism 7.0. All V(0) values were determined in triplicate and the average of three independent experiments was plotted against the substrate concentrations to yield Michaelis-Menten kinetics.

[1] = ARPE-19, 24 h incubation, H2O2 (600 µM) 4 h
[2] = ARPE-19, serum starvation (1% FBSM), 24 h incubation

Q: With `[2H]C([2H])(/C=C\C/C=C\C/C=C\C/C=C\C/C=C\CC)/C=C\CCC(=O)O` [D2-DHA, (6,6-D2)-DHA] as the molecule, how does the “concentration range providing improvement in cell viability” value (ARPE-19 cells; ARPE-19, 1% FBSM) read?
A: 0 to 65 µM

Q: What about the “concentration at which high toxicity was observed (microscopy, loss of cell adherence)” value (ARPE-19 cells) of the same molecule?
A: 65 to 70 µM

Q: What about the cell mortality (ARPE-19 cells) of the same molecule?
A: did not induced cell mortality

Q: And the IC50 (ARPE-19 cells; [1])?
A: 67 ± 1.89 µM

Q: And the IC50 (ARPE-19 cells; [2])?
A: 69.5 ± 1.46 µM

Q: And the “15s-LOX activity for the double hydroxylation product” value (“15s-LOX activity” for short) (15-sLOX)?
A: no substantial differences

Q: How did the cell survival (ARPE-19 cells; ARPE-19, 1% FBSM, 70 µM) turn out when `[2H]C([2H])(C=CCC=CCC=CCC=CCC)C=CC([2H])([2H])C=CCCC(=O)O` [D4-DHA, (6,6,9,9-D4)-DHA] was run?
A: 125%

Q: And the “concentration range providing improvement in cell viability” value (ARPE-19 cells; ARPE-19, 1% FBSM)?
A: 0 to 70 µM

Q: What about the “concentration at which high toxicity was observed (microscopy, loss of cell adherence)” value (ARPE-19 cells) of the same molecule?
A: 70 to 75 µM

Q: And the cell mortality (ARPE-19 cells)?
A: did not induced cell mortality

Q: And the IC50 (ARPE-19 cells; [1])?
A: 76.2 ± 2.26 µM

Q: What about the IC50 (ARPE-19 cells; [2]) of the same molecule?
A: 75.6 ± 1.05 µM

Q: And the “15s-LOX activity” value (15-sLOX)?
A: no substantial differences

Q: `CC/C=C\C/C=C\C/C=C\C/C=C\C/C=C\C/C=C\CCC(=O)O` [Natural DHA, docosahexaenoic acid, reference compound] was tested. Which “concentration range providing improvement in cell viability” value (ARPE-19 cells; ARPE-19, 1% FBSM) did it give?
A: 0 to 60 µM

Q: What about the “concentration at which high toxicity was observed (microscopy, loss of cell adherence)” value (ARPE-19 cells) of the same molecule?
A: 60 to 65 µM

Q: And the cell mortality (ARPE-19 cells)?
A: did not induced cell mortality

Q: And the IC50 (ARPE-19 cells; [1])?
A: 65.5 ± 1.87 µM

Q: And the IC50 (ARPE-19 cells; [2])?
A: 65.2 ± 1.03 µM

Q: What about the “15s-LOX activity” value (15-sLOX) of the same molecule?
A: no substantial differences
